# Laboratory results taken from US20240199542A1, “SUBSTITUTED PYRROLIDIN-2-ONES, SALTS THEREOF AND THEIR USE AS HERBICIDALLY ACTIVE SUBSTANCES” (Bayer Aktiengesellschaft, priority 2021, published 2024).
# Legend:
# Type in all cases: in vivo
# [1] = tested on: Digitaria sanguinalis (DIGSA); assay: Herbicidal pre-emergence action; conditions: 320 g/ha, graded after ca. 3 weeks
# Method in brief: (§1)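 Percent herbicidal effect, from 0% (as untreated) to 100% (plants dead), was graded visually about 3 weeks after treatment under optimal greenhouse conditions. Compounds, as WP or EC with 0.5% additive in 600 l water/ha at up to 1280 g/ha, were applied to covering soil over freshly sown seeds in sandy loam.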
# [2] = tested on: Alopecurus myosuroides (ALOMY); assay: Herbicidal pre-emergence action; conditions: graded after ca. 3 weeks
# Method in brief: as §1
# [3] = tested on: Avena fatua (AVEFA); assay: Herbicidal pre-emergence action; conditions: graded after ca. 3 weeks
# Method in brief: as §1
# [4] = tested on: Zea Mays (ZEAMX); assay: Post-emergence effects on crop plants; conditions: crop plant
# Source text: (§2) Seeds of mono- and dicotyledonous weed plants and crop plants were sown, in plastic or organic planting pots, in sandy loam, covered with soil and grown in a greenhouse under controlled growth conditions. 2 to 3 weeks after sowing, the test plants were sprayed in the single-leaf stage. The compounds according to the invention, formulated in form of wettable powders (WP) or as emulsifiable concentrates (EC), were sprayed onto the green plant parts as aqueous suspension or emulsion, with the addition of 0.5% of an additive, at an application rate of 600 1 of water/ha (converted). The test plants were placed in the greenhouse for ca. 3 weeks under optimum growth conditions, and then the effect of the preparations was assessed visually in comparison with untreated controls (herbicidal effect in percent (%): 100% effect=plants have died off, 0% effect=as control plants).
# (§3) Tables D1 to D3 below show the effects of selected compounds of the general formula (I) according to table 1 on various crop plants and an application rate corresponding to 320 g/ha or below obtained by the experimental procedure mentioned above in biology section B.
# [5] = tested on: Glycine max (GLXMA); assay: Post-emergence effects on crop plants; conditions: crop plant
# Source text: as §2, §3
# [6] = tested on: Brassica napus (BRSNW); assay: Post-emergence effects on crop plants; conditions: application rate 320 g/ha, crop plant Brassica napus (BRSNW)
# Source text: as §2, §3
# [7] = tested on: Lolium multiflorum (LOLMU); assay: Herbicidal post-emergence action; conditions: assessed after ca. 3 weeks
# Method in brief: (§4)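 Plants sprayed at single-leaf stage, 2–3 wk post-sowing; aq. suspension/emulsion of WP or EC, 0.5% additive, 600 l/ha; doses 1280 or 320 g/ha. Greenhouse ~3 wk, then visual % effect vs untreated (100% = dead).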
# [8] = tested on: Digitaria sanguinalis (DIGSA); assay: Herbicidal post-emergence action; conditions: 320 g/ha, assessed after ca. 3 weeks
# Method in brief: as §4
# [9] = tested on: Alopecurus myosuroides (ALOMY); assay: Herbicidal post-emergence action; conditions: assessed after ca. 3 weeks
# Method in brief: as §4
# [10] = tested on: Echinochloa crus-galli (ECHCG); assay: Herbicidal post-emergence action; conditions: assessed after ca. 3 weeks
# Method in brief: as §4
# [11] = tested on: Avena fatua (AVEFA); assay: Herbicidal post-emergence action; conditions: assessed after ca. 3 weeks
# Method in brief: as §4
# [12] = tested on: Glycine max (GLXMA); assay: Pre-emergence effects on crop plants; conditions: crop plant
# Source text: (§5) Seeds of mono- and dicotyledonous weed plants and crop plants were sown, in plastic or organic planting pots, in sandy loam and covered with soil. The compounds according to the invention, formulated in the form of wettable powders (WP) or as emulsifiable concentrates (EC), were applied to the surface of the covering soil as aqueous suspension or emulsion, with the addition of 0.5% of an additive, at an application rate of 600 1 of water/ha (converted).
# (§6) Following treatment, the pots were placed in a greenhouse and kept under optimum growth conditions for the test plants. The visual grading of the damage to the test plants was carried out after ca. 3 weeks in comparison to untreated controls (herbicidal effect in percent (%): 100% effect=plants have died off, 0% effect=as control plants).
# (§7) Tables C1 to C3 below show the effects of selected compounds of the general formula (I) according to table 1 on various crop plants and an application rate corresponding to 320 g/ha or below obtained by the experimental procedure mentioned above in biology section A.
# [13] = tested on: Brassica napus (BRSNW); assay: Pre-emergence effects on crop plants; conditions: 320 g/ha, crop plant
# Source text: as §5, §6, §7
# [14] = tested on: Cyperus esculentus (CYPES); assay: Herbicidal pre-emergence action; conditions: 1280 g/ha, graded after ca. 3 weeks
# Method in brief: as §1
# [15] = tested on: Lolium multiflorum (LOLMU); assay: Herbicidal pre-emergence action; conditions: 1280 g/ha, graded after ca. 3 weeks
# Method in brief: as §1
# [16] = tested on: Setaria viridis (SETVI); assay: Herbicidal pre-emergence action; conditions: graded after ca. 3 weeks
# Method in brief: as §1
# [17] = tested on: Polygonum convolvulus (POLCO); assay: Herbicidal pre-emergence action; conditions: graded after ca. 3 weeks
# Method in brief: as §1
# [18] = tested on: Lolium rigidum (LOLRI); assay: Herbicidal pre-emergence action; conditions: 320 g/ha, graded after ca. 3 weeks
# Method in brief: as §1
# [19] = tested on: Echinochloa crus-galli (ECHCG); assay: Herbicidal pre-emergence action; conditions: graded after ca. 3 weeks
# Method in brief: as §1
# [20] = tested on: Viola tricolor (VIOTR); assay: Herbicidal pre-emergence action; conditions: graded after ca. 3 weeks
# Method in brief: as §1
# [21] = tested on: Setaria viridis (SETVI); assay: Herbicidal post-emergence action; conditions: 1280 g/ha, assessed after ca. 3 weeks
# Method in brief: as §4
# [22] = tested on: Veronica persica (VERPE); assay: Herbicidal pre-emergence action; conditions: graded after ca. 3 weeks
# Method in brief: as §1
# [23] = tested on: Polygonum convolvulus (POLCO); assay: Herbicidal post-emergence action; conditions: assessed after ca. 3 weeks
# Method in brief: as §4
# [24] = tested on: Zea Mays (ZEAMX); assay: Pre-emergence effects on crop plants; conditions: crop plant
# Source text: as §5, §6, §7
Compound,Pre-emergence activity against DIGSA [1],Pre-emergence activity against AVEFA ([3]; 320 g/ha),post-emergence activity against BRSNW [6],Post-emergence activity against DIGSA [8],Post-emergence activity against ALOMY ([9]; 320 g/ha),pre-emergence activity against GLXMA (crop damage) ([12]; 320 g/ha),pre-emergence activity against BRSNW (crop damage) [13],Pre-emergence activity against ALOMY ([2]; 1280 g/ha),Pre-emergence activity against ECHCG ([19]; 1280 g/ha),Pre-emergence activity against AVEFA ([3]; 1280 g/ha),post-emergence activity against GLXMA (crop damage) ([5]; 320 g/ha),Post-emergence activity against LOLMU ([7]; 1280 g/ha),Post-emergence activity against ALOMY ([9]; 1280 g/ha),Post-emergence activity against ECHCG ([10]; 1280 g/ha),also measured
Cn1ncnc1NC(=O)CC1CCC(=O)N1Cc1cccc(F)c1F (racemic) [Example I-002],80%,100%,0%,80%,80%,0%,0%,–,–,–,–,–,–,–,Pre-emergence activity against ALOMY ([2]; 320 g/ha): 100%; post-emergence activity against ZEAMX (crop damage) ([4]; 80 g/ha): 0%; post-emergence activity against ZEAMX (crop damage) ([4]; 320 g/ha): 0%; post-emergence activity against GLXMA (crop damage) ([5]; 80 g/ha): 0%; Post-emergence activity against LOLMU ([7]; 320 g/ha): 80%; Post-emergence activity against ECHCG ([10]; 320 g/ha): 90%; Post-emergence activity against AVEFA ([11]; 320 g/ha): 80%
CS(=O)(=O)CCOC(=O)CC1CCC(=O)N1Cc1cccc(F)c1F (racemic) [Example I-009],90%,–,20%,80%,–,–,0%,90%,90%,100%,0%,90%,80%,100%,Pre-emergence activity against CYPES [14]: 80%; Pre-emergence activity against LOLMU [15]: 80%; Pre-emergence activity against SETVI ([16]; 1280 g/ha): 80%; Pre-emergence activity against POLCO ([17]; 320 g/ha): 80%; Pre-emergence activity against LOLRI [18]: 80%; Pre-emergence activity against VIOTR ([20]; 320 g/ha): 100%; Post-emergence activity against SETVI [21]: 80%; Post-emergence activity against AVEFA ([11]; 1280 g/ha): 90%; pre-emergence activity against GLXMA (crop damage) ([12]; 80 g/ha): 20%
COc1ccc(SCCOC(=O)CC2CCC(=O)N2Cc2cccc(F)c2F)cc1 (racemic) [Example I-040],–,–,–,–,–,–,–,90%,80%,90%,–,80%,90%,80%,Pre-emergence activity against CYPES [14]: 80%; Pre-emergence activity against VERPE ([22]; 1280 g/ha): 90%; Post-emergence activity against POLCO ([23]; 1280 g/ha): 80%
Cc1ccc(SCCOC(=O)CC2CCC(=O)N2Cc2cccc(F)c2F)cc1 (racemic) [Example I-041],–,90%,–,–,80%,–,–,–,–,–,–,–,–,–,Pre-emergence activity against VERPE ([22]; 320 g/ha): 90%; Pre-emergence activity against ALOMY ([2]; 320 g/ha): 80%; Post-emergence activity against LOLMU ([7]; 320 g/ha): 80%; Post-emergence activity against POLCO ([23]; 320 g/ha): 80%; Post-emergence activity against ECHCG ([10]; 320 g/ha): 90%
COC(=O)c1ccccc1NC(=O)CC1CCC(=O)N1Cc1cccc(F)c1F (racemic) [Example I-080],80%,80%,0%,–,–,0%,0%,–,–,–,0%,–,–,–,Pre-emergence activity against SETVI ([16]; 320 g/ha): 90%; post-emergence activity against ZEAMX (crop damage) ([4]; 320 g/ha): 0%; pre-emergence activity against ZEAMX (crop damage) ([24]; 320 g/ha): 0%
Cc1cccc(CN2C(=O)CCC2CC(=O)O)c1C (racemic) [Example I-194],–,–,–,90%,–,–,–,–,–,–,–,–,–,–,–
O=C(CC1CCC(=O)N1Cc1cccc(F)c1F)Nc1nnc(C(F)F)s1 (racemic) [Example I-195],–,–,–,–,–,–,–,–,–,–,–,–,–,–,Pre-emergence activity against VIOTR ([20]; 320 g/ha): 80%
O=C(O)CC1CCC(=O)N1Cc1cc(F)cc(F)c1F (racemic) [Example I-201],90%,100%,–,90%,90%,0%,–,–,–,–,0%,–,–,–,Pre-emergence activity against ALOMY ([2]; 320 g/ha): 100%; Pre-emergence activity against SETVI ([16]; 320 g/ha): 100%; Pre-emergence activity against LOLRI [18]: 80%; Pre-emergence activity against ECHCG ([19]; 320 g/ha): 100%; post-emergence activity against ZEAMX (crop damage) ([4]; 80 g/ha): 0%; Post-emergence activity against ECHCG ([10]; 320 g/ha): 90%; Post-emergence activity against AVEFA ([11]; 320 g/ha): 100%; pre-emergence activity against ZEAMX (crop damage) ([24]; 80 g/ha): 0%
"Cn1ncnc1NC(=O)CC1CCC(=O)N1Cc1cccc(F)c1F (single isomer, unassigned) [Example I-075]",–,90%,0%,–,–,0%,0%,–,–,–,0%,–,–,–,post-emergence activity against ZEAMX (crop damage) ([4]; 320 g/ha): 0%; Post-emergence activity against AVEFA ([11]; 1280 g/ha): 100%; pre-emergence activity against ZEAMX (crop damage) ([24]; 320 g/ha): 0%
"O=C(O)CC1CCC(=O)N1Cc1cccc(F)c1F (stereo not shown) [Example I-003, 2-[1-[(2,3-difluorophenyl)methyl]-5-oxo-pyrrolidin-2-yl]acetic acid]",90%,–,0%,–,–,–,–,90%,80%,90%,–,90%,90%,90%,Pre-emergence activity against LOLMU [15]: 90%; Pre-emergence activity against SETVI ([16]; 1280 g/ha): 80%; Pre-emergence activity against POLCO ([17]; 1280 g/ha): 90%; Pre-emergence activity against LOLRI [18]: 80%; Pre-emergence activity against VIOTR ([20]; 1280 g/ha): 90%; Post-emergence activity against SETVI [21]: 80%; Post-emergence activity against POLCO ([23]; 1280 g/ha): 80%; Post-emergence activity against AVEFA ([11]; 1280 g/ha): 90%
"Cc1ccc(OCCOC(=O)CC2CCC(=O)N2Cc2cccc(F)c2F)cc1 (stereo not shown) [Example I-034, 2-(4-methylphenoxy)ethyl 2-[1-[(2,3-difluorophenyl)methyl]-5-oxo-pyrrolidin-2-yl]acetate]",–,–,–,–,–,–,–,90%,80%,100%,–,90%,80%,90%,Pre-emergence activity against VERPE ([22]; 1280 g/ha): 100%; Post-emergence activity against SETVI [21]: 80%; Post-emergence activity against POLCO ([23]; 1280 g/ha): 80%
"O=C(CC1CCC(=O)N1Cc1cccc(F)c1F)NN1CCCC1 (stereo not shown) [Example I-200, 2-[1-[(2,3-difluorophenyl)methyl]-5-oxo-pyrrolidin-2-yl]-N-(pyrrolidin-1-yl)acetamide]",80%,100%,–,80%,80%,–,–,–,–,–,–,–,–,–,Pre-emergence activity against POLCO ([17]; 320 g/ha): 90%; Pre-emergence activity against VIOTR ([20]; 320 g/ha): 80%; Post-emergence activity against AVEFA ([11]; 320 g/ha): 80%
